Values joined by “and” are separate entries in the source; they are usually repeats but may differ in a detail not shown here. Equal entries are not always repeated.
System: TGR in newly transformed schistosomula (NTS)
Assay: TGR inhibition in NTS with TRFS-Green fluorescent probe;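 further: untreated reference is NTS exposed to TRFS-Green probe alone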
Format: cell-based, S. mansoni
Settings: NTS
Description: TGR inhibition in NTS was assessed using a fluorescent probe TRFS-Green (Medchemexpress)[43]. NTS prepared as previously described and cultured in M199 supplemented with 5.5 mM D-glucose, penicillin-streptomycin and 5% heat inactivated fetal bovine serum were incubated at 37 °C in a clear bottom flat well plate in a 5% CO2 incubator overnight. […] NTS were further treated with TRFS-Green (10 µM) for additional 4 h and rinsed with M199 medium to remove residual TRFS-Green. Fluorescence images were obtained using Keyence BZ-X800. The quantification of fluorescence intensity upon the uptake of TRFS-Green by NTS was performed by a fluorescent microplate imager (BioTek Cytation3) (excitation, 438 nm; emission, 538 nm) hourly for 5 h and after 24 h.

Cc1oc(C2CCCCC2)nc1C(=O)N[C@@H]1C[C@@H]2C[C@H]([C@H]1C)C2(C)C [C7 (8VP108)]
TGR inhibition visualized by TRFS-Green, Average (1hr, 5 µM): 12657
TGR inhibition visualized by TRFS-Green, single replicate (1hr, 5 µM): 12650 and 12664
TGR inhibition visualized by TRFS-Green, Average (1hr, 15 µM): 10865
TGR inhibition visualized by TRFS-Green, single replicate (1hr, 15 µM): 11062 and 10668
TGR inhibition visualized by TRFS-Green, Average (1hr, 30 µM): 10431.5
TGR inhibition visualized by TRFS-Green, single replicate (1hr, 30 µM): 10627 and 10236
TGR inhibition visualized by TRFS-Green, Average (2hr, 5 µM): 18963
TGR inhibition visualized by TRFS-Green, single replicate (2hr, 5 µM): 19690 and 18236
TGR inhibition visualized by TRFS-Green, Average (2hr, 15 µM): 17493
TGR inhibition visualized by TRFS-Green, single replicate (2hr, 15 µM): 17993 and 16993
TGR inhibition visualized by TRFS-Green, Average (2hr, 30 µM): 16380.5
TGR inhibition visualized by TRFS-Green, single replicate (2hr, 30 µM): 16170 and 16591
TGR inhibition visualized by TRFS-Green, Average (3hr, 5 µM): 32388.5
TGR inhibition visualized by TRFS-Green, single replicate (3hr, 5 µM): 32805 and 31972
TGR inhibition visualized by TRFS-Green, Average (3hr, 15 µM): 28933.5
TGR inhibition visualized by TRFS-Green, single replicate (3hr, 15 µM): 28944 and 28923
TGR inhibition visualized by TRFS-Green, Average (3hr, 30 µM): 28582
TGR inhibition visualized by TRFS-Green, single replicate (3hr, 30 µM): 28060 and 29104
TGR inhibition visualized by TRFS-Green, Average (4hr, 5 µM): 35273.5
TGR inhibition visualized by TRFS-Green, single replicate (4hr, 5 µM): 35655 and 34892
TGR inhibition visualized by TRFS-Green, Average (4hr, 15 µM): 29029
TGR inhibition visualized by TRFS-Green, single replicate (4hr, 15 µM): 29202 and 28856
TGR inhibition visualized by TRFS-Green, Average (4hr, 30 µM): 28478.5
TGR inhibition visualized by TRFS-Green, single replicate (4hr, 30 µM): 28833 and 28124
TGR inhibition visualized by TRFS-Green, Average (5hr, 5 µM): 39296
TGR inhibition visualized by TRFS-Green, single replicate (5hr, 5 µM): 39469 and 39123
TGR inhibition visualized by TRFS-Green, Average (5hr, 15 µM): 32855.5
TGR inhibition visualized by TRFS-Green, single replicate (5hr, 15 µM): 32828 and 32883
TGR inhibition visualized by TRFS-Green, Average (5hr, 30 µM): 29603
TGR inhibition visualized by TRFS-Green, single replicate (5hr, 30 µM): 29933 and 29273
TGR inhibition visualized by TRFS-Green, Average (24hr, 5 µM): 44285
TGR inhibition visualized by TRFS-Green, single replicate (24hr, 5 µM): 44288 and 44282
TGR inhibition visualized by TRFS-Green, Average (24hr, 15 µM): 35708
TGR inhibition visualized by TRFS-Green, single replicate (24hr, 15 µM): 35593 and 35823
TGR inhibition visualized by TRFS-Green, Average (24hr, 30 µM): 33705.5
TGR inhibition visualized by TRFS-Green, single replicate (24hr, 30 µM): 33980 and 33431

C[C@@H]1[C@H]2C[C@@H](C[C@H]1NCc1nc3ccccc3n1C1CCCCCC1)C2(C)C [C8 (9VP173)]
TGR inhibition visualized by TRFS-Green, Average (1hr, 5 µM): 11538.5
TGR inhibition visualized by TRFS-Green, single replicate (1hr, 5 µM): 11535 and 11542
TGR inhibition visualized by TRFS-Green, Average (1hr, 15 µM): 11107.5
TGR inhibition visualized by TRFS-Green, single replicate (1hr, 15 µM): 11094 and 11121
TGR inhibition visualized by TRFS-Green, Average (1hr, 30 µM): 7413.5
TGR inhibition visualized by TRFS-Green, single replicate (1hr, 30 µM): 7434 and 7393
TGR inhibition visualized by TRFS-Green, Average (2hr, 5 µM): 18549
TGR inhibition visualized by TRFS-Green, single replicate (2hr, 5 µM): 18864 and 18234
TGR inhibition visualized by TRFS-Green, Average (2hr, 15 µM): 17855.5
TGR inhibition visualized by TRFS-Green, single replicate (2hr, 15 µM): 17877 and 17834
TGR inhibition visualized by TRFS-Green, Average (2hr, 30 µM): 9154.5
TGR inhibition visualized by TRFS-Green, single replicate (2hr, 30 µM): 9096 and 9213
TGR inhibition visualized by TRFS-Green, Average (3hr, 5 µM): 28617
TGR inhibition visualized by TRFS-Green, single replicate (3hr, 5 µM): 28491 and 28743
TGR inhibition visualized by TRFS-Green, Average (3hr, 15 µM): 26316
TGR inhibition visualized by TRFS-Green, single replicate (3hr, 15 µM): 26509 and 26123
TGR inhibition visualized by TRFS-Green, Average (3hr, 30 µM): 12119
TGR inhibition visualized by TRFS-Green, single replicate (3hr, 30 µM): 12004 and 12234
TGR inhibition visualized by TRFS-Green, Average (4hr, 5 µM): 29563.5
TGR inhibition visualized by TRFS-Green, single replicate (4hr, 5 µM): 29504 and 29623
TGR inhibition visualized by TRFS-Green, Average (4hr, 15 µM): 26307.5
TGR inhibition visualized by TRFS-Green, single replicate (4hr, 15 µM): 26632 and 25983
TGR inhibition visualized by TRFS-Green, Average (4hr, 30 µM): 10530.5
TGR inhibition visualized by TRFS-Green, single replicate (4hr, 30 µM): 10830 and 10231
TGR inhibition visualized by TRFS-Green, Average (5hr, 5 µM): 37986
TGR inhibition visualized by TRFS-Green, single replicate (5hr, 5 µM): 37989 and 37983
TGR inhibition visualized by TRFS-Green, Average (5hr, 15 µM): 27117
TGR inhibition visualized by TRFS-Green, single replicate (5hr, 15 µM): 26702 and 27532
TGR inhibition visualized by TRFS-Green, Average (5hr, 30 µM): 12834
TGR inhibition visualized by TRFS-Green, single replicate (5hr, 30 µM): 12855 and 12813
TGR inhibition visualized by TRFS-Green, Average (24hr, 5 µM): 47666
TGR inhibition visualized by TRFS-Green, single replicate (24hr, 5 µM): 46698 and 48634
TGR inhibition visualized by TRFS-Green, Average (24hr, 15 µM): 29478.5
TGR inhibition visualized by TRFS-Green, single replicate (24hr, 15 µM): 29985 and 28972
TGR inhibition visualized by TRFS-Green, Average (24hr, 30 µM): 14283.5
TGR inhibition visualized by TRFS-Green, single replicate (24hr, 30 µM): 14485 and 14082

C[C@@H]1[C@H]2C[C@@H](C[C@H]1NCc1nc3ccccc3n1C)C2(C)C [C12 (8VP51)]
TGR inhibition visualized by TRFS-Green, Average (1hr, 5 µM): 11939.5
TGR inhibition visualized by TRFS-Green, single replicate (1hr, 5 µM): 11982 and 11897
TGR inhibition visualized by TRFS-Green, Average (1hr, 15 µM): 10673
TGR inhibition visualized by TRFS-Green, single replicate (1hr, 15 µM): 10612 and 10734
TGR inhibition visualized by TRFS-Green, Average (1hr, 30 µM): 10618.5
TGR inhibition visualized by TRFS-Green, single replicate (1hr, 30 µM): 10903 and 10334
TGR inhibition visualized by TRFS-Green, Average (2hr, 5 µM): 23845.5
TGR inhibition visualized by TRFS-Green, single replicate (2hr, 5 µM): 23846 and 23845
TGR inhibition visualized by TRFS-Green, Average (2hr, 15 µM): 20564.5
TGR inhibition visualized by TRFS-Green, single replicate (2hr, 15 µM): 20516 and 20613
TGR inhibition visualized by TRFS-Green, Average (2hr, 30 µM): 19325.5
TGR inhibition visualized by TRFS-Green, single replicate (2hr, 30 µM): 19387 and 19264
TGR inhibition visualized by TRFS-Green, Average (3hr, 5 µM): 33943
TGR inhibition visualized by TRFS-Green, single replicate (3hr, 5 µM): 33973 and 33913
TGR inhibition visualized by TRFS-Green, Average (3hr, 15 µM): 30062
TGR inhibition visualized by TRFS-Green, single replicate (3hr, 15 µM): 30013 and 30111
TGR inhibition visualized by TRFS-Green, Average (3hr, 30 µM): 28073.5
TGR inhibition visualized by TRFS-Green, single replicate (3hr, 30 µM): 28013 and 28134
TGR inhibition visualized by TRFS-Green, Average (4hr, 5 µM): 35461
TGR inhibition visualized by TRFS-Green, single replicate (4hr, 5 µM): 35481 and 35441
TGR inhibition visualized by TRFS-Green, Average (4hr, 15 µM): 33991.5
TGR inhibition visualized by TRFS-Green, single replicate (4hr, 15 µM): 33999 and 33984
TGR inhibition visualized by TRFS-Green, Average (4hr, 30 µM): 32914
TGR inhibition visualized by TRFS-Green, single replicate (4hr, 30 µM): 32993 and 32835
TGR inhibition visualized by TRFS-Green, Average (5hr, 5 µM): 41567.5
TGR inhibition visualized by TRFS-Green, single replicate (5hr, 5 µM): 41048 and 42087
TGR inhibition visualized by TRFS-Green, Average (5hr, 15 µM): 38445
TGR inhibition visualized by TRFS-Green, single replicate (5hr, 15 µM): 39026 and 37864
TGR inhibition visualized by TRFS-Green, Average (5hr, 30 µM): 33178.5
TGR inhibition visualized by TRFS-Green, single replicate (5hr, 30 µM): 33374 and 32983
TGR inhibition visualized by TRFS-Green, Average (24hr, 5 µM): 78091
TGR inhibition visualized by TRFS-Green, single replicate (24hr, 5 µM): 78082 and 78100
TGR inhibition visualized by TRFS-Green, Average (24hr, 15 µM): 70233
TGR inhibition visualized by TRFS-Green, single replicate (24hr, 15 µM): 70452 and 70014
TGR inhibition visualized by TRFS-Green, Average (24hr, 30 µM): 60492.5
TGR inhibition visualized by TRFS-Green, single replicate (24hr, 30 µM): 60864 and 60121

Reference: publication PMC10287695, “Non-covalent inhibitors of thioredoxin glutathione reductase with schistosomicidal activity in vivo” (Nature Communications, 2023)
